Data on 9 compounds can be found in PubChem BioAssay (NCI).

Molecules are shown by their SMILES.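 Growth conditions: 96-well plates. Treatment: test compound, 48 hours, 5 concentrations. Analysis: linear interpolation between bracketing concentrations; unreached endpoints set to highest concentration. Abbreviation: GI50, concentration required for 50% inhibition of growth. TGI denotes the concentration required for complete inhibition of growth.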

Test systems include A549 NSCLC; HL-60(TB) leukemia; HOP-92 NSCLC; MOLT-4 leukemia; NCI-H23 lung; NCI-H460 lung; SN12C renal; SNB-19 CNS; U251 CNS; UACC-62 melanoma.
What all share (assay): NCI-60 cell line screen, 48 h

Consider `COC(=O)C(CCC(=O)CCl)N1C(=O)c2ccccc2C1=O` (stereo not drawn), for which the TGI amounted to 35.3 µM in the experiment with A549 NSCLC; 5.71 µM with HL-60(TB) leukemia; 12.1 µM in the experiment with HOP-92 NSCLC; 6.94 µM with MOLT-4 leukemia; 22.8 µM with NCI-H23 lung; 29.5 µM in the experiment with NCI-H460 lung. For the same compound, the TGI in the experiment with SN12C renal was 23.8 µM; in the experiment on SNB-19 CNS it was 37.1 µM; with U251 CNS, 28.9 µM; with UACC-62 melanoma, 26 µM.
With `O=c1c2cc(-c3ccccc3)sc2ncn1Cc1ccc(Cl)c(Cl)c1`, the GI50 was 18 µM in the experiment on A549 NSCLC; 14.9 µM in the experiment on HL-60(TB) leukemia; 16.2 µM in the experiment with HOP-92 NSCLC; 18.9 µM in the experiment on MOLT-4 leukemia; 17.3 µM with NCI-H23 lung; 12.1 µM with NCI-H460 lung. Besides, the GI50 in the experiment on SN12C renal is 13.1 µM; in the experiment on SNB-19 CNS it was 26.8 µM; in the experiment on U251 CNS it was 15.5 µM; in the experiment on UACC-62 melanoma, 13 µM. The TGI is over 100 µM with A549 NSCLC; 34.1 µM in the experiment with HL-60(TB) leukemia; 40.5 µM with HOP-92 NSCLC; 54.9 µM with MOLT-4 leukemia; 44.2 µM with NCI-H23 lung; over 100 µM with NCI-H460 lung. For the same compound, the TGI with SN12C renal was 39.1 µM; with SNB-19 CNS it was over 100 µM; with U251 CNS it was 38.6 µM; with UACC-62 melanoma, 28 µM.
Take `Cc1ccc(Oc2ccccc2N)cc1`: the TGI in the experiment with A549 NSCLC is over 100 µM; with HL-60(TB) leukemia, 45 µM; in the experiment with HOP-92 NSCLC, over 100 µM; in the experiment with MOLT-4 leukemia it was over 100 µM; with NCI-H23 lung it was over 100 µM; in the experiment with NCI-H460 lung, over 100 µM. Also, the TGI with SN12C renal is over 100 µM; in the experiment with SNB-19 CNS it was over 100 µM; with U251 CNS, 22.1 µM; in the experiment on UACC-62 melanoma it was over 100 µM.
Regarding `CNNC(=N\S(=O)(=O)c1cc(C)c(Cl)cc1SCc1ccccc1)/N=C/c1ccc([N+](=O)[O-])s1`, the GI50 in the experiment with A549 NSCLC was 59.2 µM; in the experiment on HL-60(TB) leukemia it was over 100 µM; in the experiment on HOP-92 NSCLC it was 10.9 µM; with MOLT-4 leukemia, over 100 µM; in the experiment with NCI-H23 lung, over 100 µM; in the experiment with NCI-H460 lung, over 64.1 µM. Besides, the GI50 in the experiment with SN12C renal was over 100 µM; in the experiment with SNB-19 CNS, over 100 µM; in the experiment on U251 CNS it was over 100 µM; in the experiment on UACC-62 melanoma, 47.9 µM. Further, the TGI with A549 NSCLC is over 100 µM; in the experiment with HL-60(TB) leukemia it was over 100 µM; with HOP-92 NSCLC it was over 83.8 µM; with MOLT-4 leukemia, over 100 µM; in the experiment with NCI-H23 lung, over 100 µM; with NCI-H460 lung, over 100 µM. For the same compound, the TGI in the experiment on SN12C renal, in the experiment with SNB-19 CNS, with U251 CNS and in the experiment with UACC-62 melanoma was over 100 µM in each case.
For `CCCCCCCCOC(=O)c1c(C)[nH]c(/C=C2\N=C(c3ccc[nH]3)C=C2OC)c1C`, the GI50 is 0.118 µM with A549 NSCLC; 0.0688 µM in the experiment with HL-60(TB) leukemia; 0.0456 µM with HOP-92 NSCLC; under 0.0201 µM in the experiment on MOLT-4 leukemia; 0.0965 µM in the experiment on NCI-H23 lung; 0.0765 µM in the experiment on NCI-H460 lung. The GI50 in the experiment with SN12C renal is 0.0601 µM; in the experiment on SNB-19 CNS, 0.551 µM; with U251 CNS, 0.0258 µM; in the experiment on UACC-62 melanoma, 0.0295 µM. For the same compound, the TGI stood at 13.3 µM with A549 NSCLC; 4.25 µM in the experiment on HL-60(TB) leukemia; 0.228 µM with HOP-92 NSCLC; 18.5 µM in the experiment on MOLT-4 leukemia; 2.2 µM in the experiment on NCI-H23 lung; 11 µM in the experiment with NCI-H460 lung. The TGI was 3.55 µM in the experiment on SN12C renal, over 46.3 µM in the experiment on SNB-19 CNS, 1.65 µM in the experiment on U251 CNS and 0.0904 µM in the experiment with UACC-62 melanoma.
With `Cl/C(N=Nc1ccccc1)=N/Nc1ccccc1`, the TGI in the experiment on A549 NSCLC, in the experiment on HL-60(TB) leukemia, in the experiment with HOP-92 NSCLC, in the experiment with MOLT-4 leukemia, in the experiment with NCI-H23 lung and in the experiment with NCI-H460 lung was over 100 µM in each case. Besides, the TGI in the experiment on SN12C renal, with SNB-19 CNS and in the experiment with U251 CNS was over 100 µM in each case.
Regarding `COc1cc2ncnc(-n3ncc4cc(NC(=O)Nc5ccc(Cl)c(Cl)c5)ccc43)c2cc1OC`, the GI50 was 2.69 µM in the experiment on A549 NSCLC; 4.44 µM in the experiment on HL-60(TB) leukemia; 1.92 µM with HOP-92 NSCLC; 2.04 µM in the experiment on MOLT-4 leukemia; 1.93 µM in the experiment on NCI-H23 lung; 2.08 µM with NCI-H460 lung. Moreover, the GI50 was 2.1 µM in the experiment on SN12C renal, 2.66 µM in the experiment on SNB-19 CNS, 1.5 µM with U251 CNS and 1.7 µM in the experiment with UACC-62 melanoma. The TGI was found to be 5.75 µM in the experiment with A549 NSCLC; 85 µM with HL-60(TB) leukemia; 4.19 µM with HOP-92 NSCLC; 11.4 µM in the experiment with MOLT-4 leukemia; 4.24 µM in the experiment on NCI-H23 lung; 4.57 µM in the experiment with NCI-H460 lung. Also, the TGI in the experiment on SN12C renal is 4.78 µM; in the experiment on SNB-19 CNS it was 9.58 µM; in the experiment on U251 CNS it was 3.06 µM; with UACC-62 melanoma, 3.44 µM.
For `NNc1cnn(-c2ccccc2)c(=O)c1Cl`, the TGI with A549 NSCLC, in the experiment on HL-60(TB) leukemia, in the experiment on HOP-92 NSCLC, in the experiment with MOLT-4 leukemia, in the experiment with NCI-H23 lung and with NCI-H460 lung was over 100 µM each time. Also, the TGI with SN12C renal, with U251 CNS and in the experiment on UACC-62 melanoma was over 100 µM throughout.
As for `c1cc(-c2nnc(SSc3ncnc4nc[nH]c34)o2)ccn1`, the GI50 in the experiment on A549 NSCLC was 23 µM; with HL-60(TB) leukemia, 2.49 µM; in the experiment with HOP-92 NSCLC, 0.582 µM; with MOLT-4 leukemia, 1.23 µM; with NCI-H23 lung it was 2.73 µM; in the experiment on NCI-H460 lung, 5.15 µM. The GI50 with SN12C renal is 6.6 µM; with SNB-19 CNS, 78.4 µM; with U251 CNS, 7.22 µM; in the experiment on UACC-62 melanoma, 2.02 µM. The TGI with A549 NSCLC, in the experiment on HL-60(TB) leukemia, in the experiment with HOP-92 NSCLC, with MOLT-4 leukemia, in the experiment on NCI-H23 lung and in the experiment on NCI-H460 lung was over 100 µM in each case. The TGI in the experiment on SN12C renal, in the experiment with SNB-19 CNS, in the experiment on U251 CNS and in the experiment with UACC-62 melanoma was over 100 µM each time.
